Data on 3 substances can be found in PMC12620000, “Exploring the feasibility of protein phosphatase 1–docking motif-mimetic cell-penetrating peptides for modulating prostate carcinogenesis” (JNCI Cancer Spectrum, 2025).

Where no end group is shown, it is not given here.

For one experiment, the system named is LNCaP cells. It counts as cell-based. The following applies: 24 h, 5 μM. The method, then:
(§1) One mM peptide stocks were prepared as for fluorescent versions. Cells were grown to 60%-70% confluence in 96-well plates and treated with 1-20 μM peptides in RPMI-1640 (phenol red-free). After 24 or 48 hours at 37 °C, 5% CO2, PrestoBlue (1/10 dilution) was added for 30 minutes. Fluorescence (λAbs 560 nm/λEm 600 nm) was measured using an Infinite 200 PRO reader (Tecan). Each condition had 3-5 replicates, repeated in 3 independent experiments.
(§2) Figure 3. Synergistic reduction of prostate cancer cell viability by combined AR-BS peptides. […] B) Cells were treated with combinations of AR-BS peptides (5 or 10 μM of each peptide) for 24 hours to assess potential synergistic effects. Cell viability was evaluated using the PrestoBlue Cell Viability Reagent according to the manufacturer’s instructions. Percentage cell viability was calculated as the ratio between treatment and control conditions (cells without treatment). Results are expressed as mean (SD) percentage from 3 independent experiments with 5 replicates per condition. Statistical comparisons were performed using the Mann–Whitney U test. *P < .05. Abbreviations: AR-BS = androgen receptor–binding site; mitP = mitoparan.
(§3) Percentage cell viability was calculated from the ratio between treatment condition and control condition (cells with no treatment). Results are expressed as mean ± SD from three independent experiments with five replicates per condition.
For the substance KVKPIYFHTGRKKRRQRRRPPQ-NH2 [AR-BS3], the “Cell viability, Mean” value is on record as 91%.
The same measure, in the same setting: for GSCKVFFKRAAKGKQK-NH2 [AR-BS1] the value was 97%.
The same measure, in the same setting: for RQLVHVVKWAKKL-NH2 [AR-BS2] the value was 95%.

The experiment is the same for the next values; noted with them: 24 h, 10 μM.
KVKPIYFHTGRKKRRQRRRPPQ-NH2 [AR-BS3]: the “Cell viability, Mean” value is reported as 94%.
On the same count and under the same terms, for GSCKVFFKRAAKGKQK-NH2 [AR-BS1] the value was 96%; for RQLVHVVKWAKKL-NH2 [AR-BS2], 96%.

Still in this experiment, the particulars now being: 24 h, 20 μM.
Turning to KVKPIYFHTGRKKRRQRRRPPQ-NH2 [AR-BS3], the “Cell viability, Mean” value is reported as 99%.
Regarding GSCKVFFKRAAKGKQK-NH2 [AR-BS1], the “Cell viability, Mean” value stood at 94%.
The same measure, in the same setting: for RQLVHVVKWAKKL-NH2 [AR-BS2] the value was 83%.

For another experiment, the system named is PC3 cells. It counts as cell-based. The following applies: 24 h, 5 μM. The method, then: as §1, §2, §3
On to KVKPIYFHTGRKKRRQRRRPPQ-NH2 [AR-BS3], for which the “Cell viability, Mean” value worked out at 79%.
Take GSCKVFFKRAAKGKQK-NH2 [AR-BS1]: the “Cell viability, Mean” value stood at 89%.
On the same count and under the same terms, for RQLVHVVKWAKKL-NH2 [AR-BS2] the value was 93%.

Staying with this experiment, now noted: 24 h, 10 μM.
For the substance KVKPIYFHTGRKKRRQRRRPPQ-NH2 [AR-BS3], the “Cell viability, Mean” value was 88%.
Consider GSCKVFFKRAAKGKQK-NH2 [AR-BS1], for which the “Cell viability, Mean” value was found to be 89%.
Regarding RQLVHVVKWAKKL-NH2 [AR-BS2], the “Cell viability, Mean” value came to 87%.

The experiment is the same for the next values; noted with them: 24 h, 20 μM.
For the substance KVKPIYFHTGRKKRRQRRRPPQ-NH2 [AR-BS3], the “Cell viability, Mean” value amounted to 84%.
Turning to GSCKVFFKRAAKGKQK-NH2 [AR-BS1], the “Cell viability, Mean” value is reported as 81%.
Still for that read-out and setting: for RQLVHVVKWAKKL-NH2 [AR-BS2] the value was 81%.
